The values below come from PMC7395176, “Retromer stabilization results in neuroprotection in a model of Amyotrophic Lateral Sclerosis” (Nature Communications, 2020).

In data set [1] the target is T1, VPS35 (Mus musculus, UniProt Q9EQH3+Q9QZ88). Conditions: Neuro2a cells, 10 µM, 48 h, WB.
Description: Protein extracts were collected, separated by SDS-PAGE and immunoblotted for VPS35 and the housekeeping gene β-Actin.
Neuro2a cells (ATCC® CCL-131™) were seeded in Dulbecco’s modified Eagle’s media (DMEM, Gibco) supplemented with FBS 10% (Gibco), L-glutamine (Gibco) 2 mM and penicillin/streptomycin 1% (Gibco). Depending on the experimental setting, we used 6-well, 12-well or 96-well dishes. Neuro2a were grow at 37 °C in a humidified 5% CO2 atmosphere. All experiments were carried out at least in triplicate. Compounds and transfections were done on cells showing 60–70% of confluence. Compounds were usually kept on cells for 48 h; Bortezomib (BTZ) was used at 10 nM for 6 h to inhibit proteasome.
Protein lysates from cells cultures were collected from plates receiving PBS 1× washing and subsequently the lysis buffer followed by sonication. Protein concentrations were measured by BCA protein assay kit (Thermofisher) according to the manufacturer’s recommendations. Ten µg of protein extract was loaded on 10% Mini-PROTEAN TGX Stain-Free precast gels for PAGE (Bio-Rad). Gel electrophoresis was performed at 100 V for 2 h. Gels were transferred on Immobilon®-P PVDF membrane according to the manufacturer’s instructions (Millipore). Blots were blocked in 5% BSA in Tris buffered saline plus 0.1% Tween-20 (TBS-T) for 1 h before receiving primary antibodies: goat α-VPS35 1:800 (ab10099, Abcam); rabbit α-VPS26 1:1000 (ab23892 Abcam), rabbit α-VPS26b 1:1000 (15915-1-AP, ProteinTech); rabbit α-VPS29 1:1000 (ab236796 Abcam); mouse α-βActin 1:25000 (Sigma–Aldrich); mouse α-Golgin97 1:1000 (Invitrogen); mouse α-Ubiquitin 1:500 (Merk); rabbit α-CD14 1:1000 (Bioss Inc); mouse α-Tubulin 1:5000 (Immunological Sciences MAB-80143) overnight at 4 °C on shaker. Following several washes with TBS-T, blots were incubated in appropriate HRP-labeled secondary antibodies (Bio-Rad) for 1 h at room temperature. Visualization of protein bands was obtained using ClarityMax-ECL (Bio-Rad) according to the manufacturer’s instructions and images were acquired on ChemiDoc (Bio-Rad). Quantifications were done using the Image Lab 6.0.1 software (Bio-Rad).
In data set [2] the test system is VPS35-VPS29 interaction / retromer. The arrangement: method as in PMID 24747528. Particulars: cited from earlier work.
In data set [3] the test system is Vps35, Vps26, and Vps29 mRNAs. Also on record: method as in PMID 24747528. Particulars: cited from earlier work.
In the next data set the test system is APP processing. Also on record: method as in PMID 24747528. Conditions: neurons carrying pathogenic APP mutations; cited from earlier work.
A further data set addresses VPS29-VPS35 heterodimer (Homo sapiens, UniProt Q96QK1+Q9UBQ0). The data set can be described thus: STD-NMR and WaterLogsy-NMR ligand-based binding experiments. Conditions: STD- and WL-NMR competition experiments could not be performed. The procedure:
We used a ligand-based NMR approach to localize the binding between compound 2a and the VPS29-VPS35 heterodimer. These techniques provide binding information without requiring any isotopic labeling of the proteins. Particularly, Saturation Transfer Difference NMR (STD-NMR)[32] and WaterLogsy-NMR (WL-NMR)[33] experiments were acquired in buffer solutions containing a large excess of compound 2a (500μM) with respect to VPS29-VPS35 (10 μM). Both STD-NMR and WL-NMR focus on the NMR signals of the ligand and utilize the magnetization transfer by the Nuclear Overhauser Effect (NOE) between protein and ligand. STD-NMR experiments are carried out by subtraction of a 1D ^1H spectrum where the protein protons are selectively irradiated (on-resonance spectrum) from a spectrum in which the protein is not saturated (off-resonance spectrum).
WL-NMR entails magnetization transfer to the ligand from either bulk water via a macromolecule, and/or the exchangeable protons and the water molecules present in the binding site. Positive peaks for proton resonances of the ligand in the WL-NMR spectrum are observed for binders in presence of the protein. […] As negative control, STD-NMR and WL-NMR experiments were performed for compound 2a in absence of the heterodimer. The absence of proton signals in the aromatic zone and the presence of negative signals in STD-NMR (Fig. 2k) and WL-NMR (Fig. 2l) spectra, respectively, confirms the binding between compound 2a and the VPS29-VPS35 heterodimer. Unfortunately, STD- and WL-NMR competition experiments between 2a and R55/1 could not be performed since the latter compound was not stable in our experimental conditions.
NMR spectra were acquired at 298K on a Bruker Avance NEO 700 MHz spectrometer equipped with a Z-gradient cryoprobe. The spectra were processed with the Bruker TOPSPIN 4.0.5 software packages. […] 1D ^1H spectra were recorded using a 1 s presaturation pulse with a B1 power of 200 Hz. […]

Data set [4] has as its target T1, VPS35. The data set can be described thus: Western blot for VPS35 in spinal cord extracts of treated C57BL6J mice. The format is in vivo. Also on record: from tissue; host or cells: mouse (lumbar) spinal cord, motor neurons. Particulars: 10 mg/Kg intraperitoneally daily, 1 week. The procedure: Compounds 2a, 4a, and standard R55/1 (10 mg/Kg) were intraperitoneally injected in C57BL6J mice daily. After 1 week, mice were sacrificed, saline perfused to avoid CNS contamination by compounds in blood circulation, and SC protein extracts were assayed by WB. […] Therefore, phenyl-1,3-bis-guanylhydrazone 2a was selected as an early lead.
(Immunoblotting shows a protein as a band on a membrane.)

Regarding `N=C(N)SCc1ccc(CSC(=N)N)s1` [R55/1], the VPS35 levels result at VPS35 [1] is “increased”. Also, in data set [2], the VPS35-VPS29 interaction result is on record as “stabilizes the VPS35-VPS29 interaction”; the “VPS35 and VPS26 levels in cultured cells” value is “increases VPS35 and VPS26 levels”; the “increase of VPS35 levels in cells” value is on record as approximately 60%. The “transcription levels of CRC genes” value in data set [3] is “did not influence”. In the data set with APP processing, the “accumulation of amyloid-β peptides and APP processing” value is listed as “reduced the accumulation of amyloid-β (Aβ) peptides as well as APP processing”. For the same compound, the “stability in NMR experimental conditions” value on VPS29-VPS35 heterodimer is on record as “not stable”.
As for `N=C(N)SCc1cccc(CSC(=N)N)c1` [compound 4a], at VPS35 [1], the VPS35 levels entry is listed as “increased VPS35 levels”. On VPS35 [4], the “VPS35 levels in SC extracts” value is given as “slightly, but not significantly, increased”.
Take `NC(N)=N/N=C/c1ccc(/C=N/N=C(N)N)s1` [compound 3a]: the VPS35 levels result at VPS35 [1] is on record as “increased VPS35 levels”.
